From patent US6441193B1, “Estrogen agonists/antagonists” (Pfizer Inc., priority 1995, dated 2002)

Legend:
prostate = assay: Effect on prostate weight (wet prostate weight after 14 days of daily subcutaneous injection); format: in vivo, rat; conditions: male Sprague-Dawley rats, s.c. daily for 14 days
Procedure: Male Sprague-Dawley rats, three months of age are administered by subcutaneous injection either vehicle (10% ethanol in water), estradiol (30 μg/kg), testosterone (1 mg/kg) or a compound of formula I daily for 14 days (n=6/group). After 14 days the animals are sacrificed, the prostate is removed and the wet prostate weight is determined. Mean weight is determined and statistical significance (p<0.05) is determined compared to the vehicle-treated group using Student's t-test.

ventral prostate = conditions: male rats; cited from earlier work

C[C@]12CC[C@@H]3c4ccc(O)cc4CC[C@H]3[C@@H]1CC[C@@H]2O [estrogen, estradiol]
wet prostate weight compared to vehicle (prostate; 30 μg/kg): significantly reduces prostate weight

O=C(c1ccc(OCCN2CCCCC2)cc1)c1c(-c2ccc(O)cc2)sc2cc(O)ccc12 [raloxifene, 6-hydroxy-2-(4-hydroxyphenyl)-3-[4-(2-piperidinoethoxy)benzoyl] benzo[b] thiophene]
effect on ventral prostate (ventral prostate): regression of the ventral prostate

C[C@]12CC[C@H]3[C@@H](CCC4=CC(=O)CC[C@@]43C)[C@@H]1CC[C@@H]2O [Testosterone, testosterone]
wet prostate weight compared to vehicle (prostate; testosterone 1 mg/kg): no effect
